Tests used:
[1] = molecular target: Protein kinase C alpha type (Homo sapiens) (UniProt P17252); assay: Percentage PKCalpha activity remaining in the presence of 25uM inhibitor
[2] = molecular target: T1, 3-phosphoinositide-dependent protein kinase 1 (Homo sapiens) (UniProt O15530); assay: Percentage PDK1 activity remaining in the presence of 25uM inhibitor
T1 sequence (whole entry): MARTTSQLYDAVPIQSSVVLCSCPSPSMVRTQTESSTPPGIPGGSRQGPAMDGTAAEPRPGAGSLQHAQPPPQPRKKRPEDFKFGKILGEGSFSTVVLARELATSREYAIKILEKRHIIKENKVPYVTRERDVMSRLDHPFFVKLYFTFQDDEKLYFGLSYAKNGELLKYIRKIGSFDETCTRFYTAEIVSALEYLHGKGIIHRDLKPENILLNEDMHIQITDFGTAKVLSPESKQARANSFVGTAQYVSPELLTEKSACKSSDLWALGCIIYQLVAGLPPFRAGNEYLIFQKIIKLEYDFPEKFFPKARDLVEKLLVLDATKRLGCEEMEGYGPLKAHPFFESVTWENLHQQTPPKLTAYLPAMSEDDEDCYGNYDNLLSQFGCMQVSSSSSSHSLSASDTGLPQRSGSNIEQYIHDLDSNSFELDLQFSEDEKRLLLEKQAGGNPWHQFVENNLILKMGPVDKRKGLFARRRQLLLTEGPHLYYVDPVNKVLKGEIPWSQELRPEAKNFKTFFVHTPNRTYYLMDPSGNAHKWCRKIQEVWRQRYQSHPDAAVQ

[3] = molecular target: Serine/threonine-protein kinase PAK 4 (Homo sapiens, UniProt O96013); assay: Inhibition of PAK4 in the presence of 5uM ATP
[4] = molecular target: Serine/threonine-protein kinase PLK1 (Homo sapiens, UniProt P53350); assay: Percentage PLK1 activity remaining in the presence of 3uM inhibitor
[5] = molecular target: Proto-oncogene tyrosine-protein kinase LCK (Mus musculus, UniProt P06240); assay: Inhibition of Lck in the presence of 50uM ATP
[6] = molecular target: MAP kinase-interacting serine/threonine-protein kinase 1 (Homo sapiens) (UniProt Q9BUB5); assay: Percentage MNK1 activity remaining in the presence of 3uM inhibitor; settings: filed as antagonist
[7] = molecular target: Cyclin-dependent kinase 2/cyclin A (Homo sapiens) (UniProt P24941+P20248+P78396); assay: Percentage CDK2-cyclinA activity remaining in the presence of 3uM inhibitor; assay type: protein-complex assay
[8] = molecular target: Mitogen-activated protein kinase 8 (Homo sapiens, UniProt P45983); assay: Percentage JNK1 activity remaining in the presence of 3uM inhibitor
Aurora kinase B = Aurora kinase B (Homo sapiens, UniProt Q96GD4); assay: Percentage Aurora B activity remaining in the presence of 3uM inhibitor
[9] = molecular target: T2, Inhibitor of nuclear factor kappa-B kinase subunit epsilon (Homo sapiens) (UniProt Q14164); assay: Percentage IKKepsilon activity remaining in the presence of 0.01uM inhibitor; settings: filed as antagonist
T2 sequence (whole entry): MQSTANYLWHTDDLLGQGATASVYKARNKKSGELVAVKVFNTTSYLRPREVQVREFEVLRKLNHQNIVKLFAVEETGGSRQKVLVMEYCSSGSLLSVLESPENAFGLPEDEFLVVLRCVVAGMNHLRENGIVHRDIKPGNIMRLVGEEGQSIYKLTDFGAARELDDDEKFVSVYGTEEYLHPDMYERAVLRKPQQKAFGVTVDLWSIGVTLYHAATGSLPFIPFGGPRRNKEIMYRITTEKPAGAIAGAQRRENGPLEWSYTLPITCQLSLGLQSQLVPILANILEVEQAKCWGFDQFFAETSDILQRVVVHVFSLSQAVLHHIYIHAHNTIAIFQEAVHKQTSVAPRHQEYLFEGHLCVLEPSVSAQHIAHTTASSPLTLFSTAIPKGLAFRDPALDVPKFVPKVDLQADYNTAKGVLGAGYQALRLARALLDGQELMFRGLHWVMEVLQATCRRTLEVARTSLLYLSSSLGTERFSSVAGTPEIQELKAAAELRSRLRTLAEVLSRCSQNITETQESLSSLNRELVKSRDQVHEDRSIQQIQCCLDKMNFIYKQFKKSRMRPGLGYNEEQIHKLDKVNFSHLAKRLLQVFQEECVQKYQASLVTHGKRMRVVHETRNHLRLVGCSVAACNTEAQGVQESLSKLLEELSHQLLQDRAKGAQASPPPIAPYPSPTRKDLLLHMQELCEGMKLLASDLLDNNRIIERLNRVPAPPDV

[10] = molecular target: T3, Dual specificity tyrosine-phosphorylation-regulated kinase 3 (Homo sapiens) (UniProt O43781); assay: Percentage DYRK3 activity remaining in the presence of 2uM inhibitor
T3 sequence (whole entry): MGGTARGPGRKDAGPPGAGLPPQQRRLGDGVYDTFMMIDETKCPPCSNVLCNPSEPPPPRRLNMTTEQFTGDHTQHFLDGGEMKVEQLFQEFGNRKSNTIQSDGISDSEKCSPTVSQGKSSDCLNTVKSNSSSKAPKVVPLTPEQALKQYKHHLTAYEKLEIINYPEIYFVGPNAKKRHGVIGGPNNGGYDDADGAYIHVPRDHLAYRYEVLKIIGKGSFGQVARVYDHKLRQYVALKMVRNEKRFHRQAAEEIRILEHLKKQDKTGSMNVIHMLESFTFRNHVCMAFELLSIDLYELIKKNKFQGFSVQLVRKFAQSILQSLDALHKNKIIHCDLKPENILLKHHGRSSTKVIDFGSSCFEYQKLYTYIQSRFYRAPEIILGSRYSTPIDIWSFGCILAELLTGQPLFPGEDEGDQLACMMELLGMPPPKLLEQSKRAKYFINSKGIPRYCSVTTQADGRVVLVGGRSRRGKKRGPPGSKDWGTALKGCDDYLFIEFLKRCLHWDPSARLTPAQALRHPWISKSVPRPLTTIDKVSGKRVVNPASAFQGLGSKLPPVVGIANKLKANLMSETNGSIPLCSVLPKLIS

[11] = molecular target: Serine/threonine-protein kinase PAK 6 (Homo sapiens) (UniProt Q9NQU5); assay: Percentage PAK6 activity remaining in the presence of 2uM inhibitor
[12] = molecular target: RAC-alpha serine/threonine-protein kinase (Homo sapiens) (UniProt P31749); assay: Percentage PKBalpha activity remaining in the presence of 2uM inhibitor
Chain of RAC-alpha serine/threonine-protein kinase (Homo sapiens) (P31749 whole entry): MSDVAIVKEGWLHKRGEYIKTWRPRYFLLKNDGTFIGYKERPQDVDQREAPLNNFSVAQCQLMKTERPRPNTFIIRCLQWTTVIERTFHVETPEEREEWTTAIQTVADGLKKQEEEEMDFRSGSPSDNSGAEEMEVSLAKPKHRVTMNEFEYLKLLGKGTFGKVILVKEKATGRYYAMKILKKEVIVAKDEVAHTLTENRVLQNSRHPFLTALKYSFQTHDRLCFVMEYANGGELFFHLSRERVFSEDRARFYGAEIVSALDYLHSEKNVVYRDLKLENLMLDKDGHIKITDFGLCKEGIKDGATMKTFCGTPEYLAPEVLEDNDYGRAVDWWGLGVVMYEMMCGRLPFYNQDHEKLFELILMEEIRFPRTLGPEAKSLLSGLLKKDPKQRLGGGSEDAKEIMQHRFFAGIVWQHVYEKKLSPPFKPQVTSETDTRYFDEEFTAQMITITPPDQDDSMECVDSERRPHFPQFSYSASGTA

Chain of Serine/threonine-protein kinase PAK 6 (Homo sapiens) (Q9NQU5 whole entry, looked up): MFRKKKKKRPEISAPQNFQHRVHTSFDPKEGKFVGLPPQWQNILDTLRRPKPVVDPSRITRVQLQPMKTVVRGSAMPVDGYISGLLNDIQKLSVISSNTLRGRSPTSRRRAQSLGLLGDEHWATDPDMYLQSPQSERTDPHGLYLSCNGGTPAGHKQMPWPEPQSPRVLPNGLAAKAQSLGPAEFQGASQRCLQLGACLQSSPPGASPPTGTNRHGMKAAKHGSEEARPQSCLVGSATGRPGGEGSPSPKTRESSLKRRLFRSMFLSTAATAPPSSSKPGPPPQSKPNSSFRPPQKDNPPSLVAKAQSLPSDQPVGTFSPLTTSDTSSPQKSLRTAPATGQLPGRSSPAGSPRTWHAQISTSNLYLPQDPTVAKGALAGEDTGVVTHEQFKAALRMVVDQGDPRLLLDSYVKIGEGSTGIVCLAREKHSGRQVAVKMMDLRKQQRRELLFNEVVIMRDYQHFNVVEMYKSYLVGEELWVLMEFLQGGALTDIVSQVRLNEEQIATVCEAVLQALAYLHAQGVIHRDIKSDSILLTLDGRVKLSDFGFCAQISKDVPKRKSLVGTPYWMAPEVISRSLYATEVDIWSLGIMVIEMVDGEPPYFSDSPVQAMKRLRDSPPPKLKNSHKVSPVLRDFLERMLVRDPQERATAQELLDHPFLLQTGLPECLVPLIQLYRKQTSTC
Chain of MAP kinase-interacting serine/threonine-protein kinase 1 (Homo sapiens) (Q9BUB5 whole entry, looked up): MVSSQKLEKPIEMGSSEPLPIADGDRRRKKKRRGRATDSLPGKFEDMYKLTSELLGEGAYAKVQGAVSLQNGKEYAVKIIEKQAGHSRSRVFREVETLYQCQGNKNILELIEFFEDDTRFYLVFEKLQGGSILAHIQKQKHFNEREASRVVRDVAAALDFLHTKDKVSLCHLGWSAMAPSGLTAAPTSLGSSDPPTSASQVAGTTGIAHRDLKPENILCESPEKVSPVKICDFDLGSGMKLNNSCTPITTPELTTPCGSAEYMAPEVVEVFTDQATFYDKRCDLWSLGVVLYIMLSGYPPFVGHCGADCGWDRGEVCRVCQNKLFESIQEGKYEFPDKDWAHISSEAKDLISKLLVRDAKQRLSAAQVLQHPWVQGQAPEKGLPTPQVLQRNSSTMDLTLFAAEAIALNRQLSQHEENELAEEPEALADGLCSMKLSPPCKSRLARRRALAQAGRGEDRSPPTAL
Chain of Aurora kinase B (Q96GD4 whole entry): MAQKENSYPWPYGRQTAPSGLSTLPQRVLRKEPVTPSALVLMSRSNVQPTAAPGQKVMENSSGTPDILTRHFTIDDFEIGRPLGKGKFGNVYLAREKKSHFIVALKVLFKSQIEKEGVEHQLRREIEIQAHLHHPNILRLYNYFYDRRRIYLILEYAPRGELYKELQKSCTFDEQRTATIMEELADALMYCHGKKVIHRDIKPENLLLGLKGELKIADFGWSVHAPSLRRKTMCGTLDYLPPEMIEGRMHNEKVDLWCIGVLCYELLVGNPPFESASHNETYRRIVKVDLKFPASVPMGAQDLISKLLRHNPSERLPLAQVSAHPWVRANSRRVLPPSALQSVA
Chain of Mitogen-activated protein kinase 8 (P45983 whole entry): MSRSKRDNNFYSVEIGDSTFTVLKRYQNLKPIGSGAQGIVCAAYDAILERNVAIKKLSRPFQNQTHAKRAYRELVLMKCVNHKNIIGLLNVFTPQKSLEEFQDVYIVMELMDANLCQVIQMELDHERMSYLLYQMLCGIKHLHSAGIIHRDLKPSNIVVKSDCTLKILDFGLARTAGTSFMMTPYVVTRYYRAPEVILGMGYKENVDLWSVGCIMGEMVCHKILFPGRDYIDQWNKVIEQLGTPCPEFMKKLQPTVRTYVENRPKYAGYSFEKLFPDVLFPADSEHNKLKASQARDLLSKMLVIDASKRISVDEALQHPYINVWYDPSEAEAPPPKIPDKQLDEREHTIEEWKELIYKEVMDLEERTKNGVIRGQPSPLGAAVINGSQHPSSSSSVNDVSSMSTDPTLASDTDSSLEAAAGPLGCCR
Chain of Serine/threonine-protein kinase PLK1 (P53350 whole entry): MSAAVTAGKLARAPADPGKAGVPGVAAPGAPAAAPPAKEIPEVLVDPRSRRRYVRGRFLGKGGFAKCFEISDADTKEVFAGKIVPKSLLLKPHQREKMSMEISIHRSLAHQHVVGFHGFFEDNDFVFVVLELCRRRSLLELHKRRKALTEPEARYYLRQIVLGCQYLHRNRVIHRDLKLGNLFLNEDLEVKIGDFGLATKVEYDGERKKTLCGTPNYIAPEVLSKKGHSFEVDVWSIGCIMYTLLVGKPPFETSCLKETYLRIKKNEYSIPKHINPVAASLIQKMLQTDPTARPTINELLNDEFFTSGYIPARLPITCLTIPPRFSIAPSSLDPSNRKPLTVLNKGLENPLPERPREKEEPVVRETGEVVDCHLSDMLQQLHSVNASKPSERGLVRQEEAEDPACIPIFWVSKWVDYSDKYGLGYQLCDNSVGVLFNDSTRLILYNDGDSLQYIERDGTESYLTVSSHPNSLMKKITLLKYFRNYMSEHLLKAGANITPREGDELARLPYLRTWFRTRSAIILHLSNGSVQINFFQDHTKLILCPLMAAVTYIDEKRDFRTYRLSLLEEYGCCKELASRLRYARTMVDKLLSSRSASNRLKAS
Chain of Proto-oncogene tyrosine-protein kinase LCK (P06240 whole entry): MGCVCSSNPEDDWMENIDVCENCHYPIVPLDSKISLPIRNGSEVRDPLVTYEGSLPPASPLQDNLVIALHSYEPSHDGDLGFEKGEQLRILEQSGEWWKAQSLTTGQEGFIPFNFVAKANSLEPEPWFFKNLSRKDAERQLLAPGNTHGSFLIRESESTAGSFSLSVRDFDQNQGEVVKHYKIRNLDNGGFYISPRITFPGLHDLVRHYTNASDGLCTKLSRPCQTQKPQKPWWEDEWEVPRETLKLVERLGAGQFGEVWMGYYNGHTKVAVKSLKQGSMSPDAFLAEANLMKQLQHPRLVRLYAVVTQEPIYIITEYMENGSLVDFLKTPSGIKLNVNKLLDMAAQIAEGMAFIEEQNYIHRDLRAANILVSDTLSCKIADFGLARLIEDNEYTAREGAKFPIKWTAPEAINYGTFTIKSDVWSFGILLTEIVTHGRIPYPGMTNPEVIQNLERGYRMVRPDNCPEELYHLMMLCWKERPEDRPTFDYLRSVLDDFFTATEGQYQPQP
Chain of Serine/threonine-protein kinase PAK 4 (O96013 whole entry): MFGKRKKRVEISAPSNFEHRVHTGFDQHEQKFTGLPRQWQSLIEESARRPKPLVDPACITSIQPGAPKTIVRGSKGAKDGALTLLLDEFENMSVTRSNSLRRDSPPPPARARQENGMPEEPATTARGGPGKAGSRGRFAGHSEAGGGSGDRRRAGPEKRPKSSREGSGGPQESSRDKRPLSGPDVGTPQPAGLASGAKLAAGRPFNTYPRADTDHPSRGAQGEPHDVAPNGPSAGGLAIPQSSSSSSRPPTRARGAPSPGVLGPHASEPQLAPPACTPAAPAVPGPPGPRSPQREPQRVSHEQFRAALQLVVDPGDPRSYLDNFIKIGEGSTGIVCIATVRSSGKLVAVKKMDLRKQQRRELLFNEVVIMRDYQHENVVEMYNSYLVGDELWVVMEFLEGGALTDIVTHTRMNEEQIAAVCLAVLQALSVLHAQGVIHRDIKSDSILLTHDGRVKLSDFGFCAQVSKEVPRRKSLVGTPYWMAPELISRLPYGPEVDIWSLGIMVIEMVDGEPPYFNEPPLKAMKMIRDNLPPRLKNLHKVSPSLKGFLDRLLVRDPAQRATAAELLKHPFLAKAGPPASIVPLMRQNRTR

Question: What does the source list for `NCCNS(=O)(=O)c1ccc(Cl)c2ccncc12`?
Answer: Activity [1]: 86%; Activity [2]: 83%

Question: Which IC50 [3] does the source give for `CC(C)[C@H](CO)Nc1nc(Nc2cccc(Cl)c2)c2ncn(C(C)C)c2n1` [PURVALANOLA] here?
Answer: 130 nM (antagonist)

Question: How did the Activity [4] turn out when `Cc1ccc(-c2c(C(=O)CF)n(CCCO)c3ncnc(N)c23)cc1` was run?
Answer: 82%

Question: What about the IC50 [5] of the same compound?
Answer: 750 nM (antagonist)

Question: What about the Activity [6] of the same compound?
Answer: 42%

Question: And the Activity [7]?
Answer: 80%

Question: And the Activity [8]?
Answer: 81%

Question: What about the Activity (Aurora kinase B) of the same compound?
Answer: 59%

Question: How did the Activity [9] turn out when `O=C(NCCCNc1nc(Nc2cccc(NC(=O)N3CCCC3)c2)ncc1I)c1cccs1` was run?
Answer: 21%

Question: `Cn1cc(C2=C(c3ccc(Cl)cc3Cl)C(=O)NC2=O)c2ccccc21` was tested. Which Activity [10] did it give?
Answer: 79%

Question: What about the Activity [11] of the same compound?
Answer: 90%

Question: What about the Activity [12] of the same compound?
Answer: 88%

Reference: ChEMBL document CHEMBL1150976, “The selectivity of protein kinase inhibitors: a further update” (Biochem J, 2007)
